Source: the NIST ThermoML archive (doi:10.1016/j.fluid.2018.05.011)
Numbers after ± are expanded uncertainties.

settings: Liquid; Resistive pulse heating

| Compound | Critical pressure | Critical temperature |
| --- | --- | --- |
| OCCOCCOCCOCCOCCOCCO [3,6,9,12,15-pentaoxaheptadecane-1,17-diol] | 1820 ± 70 kPa | 868 ± 13 K |
| OCCOCCOCCOCCOCCO [3,6,9,12-tetraoxatetradecane-1,14-diol] | 2130 ± 90 kPa | 842 ± 13 K |
| OCCOCCO [diethylene glycol] | 4830 ± 190 kPa | 753 ± 11 K |
| OCCOCCOCCO [triethylene glycol] | 3570 ± 140 kPa | 788 ± 12 K |
